target: T1, HDM2 (Homo sapiens, UniProt Q00987); assay: FRET assay (HDM2 inhibition; method not described in this part); assay type: binding; conditions: Table 1
T1 construct: Thioredoxin (N); made in house; host or cells: E. coli strain BL21(DE3)Rosetta
T1 sequence (Q00987 17-125): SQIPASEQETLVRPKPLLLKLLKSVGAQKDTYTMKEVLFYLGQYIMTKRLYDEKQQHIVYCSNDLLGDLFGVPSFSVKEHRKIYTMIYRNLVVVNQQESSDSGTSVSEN

SMILES | IC50
Cc1ccn(-c2ccnc(-c3nc4nc(C(=O)O)nc(N[C@H](C)C5CCC5)c4n3Cc3ccc(C(F)(F)F)cc3)c2)n1 [Example 1.48, 6-{[(1R)-1-cyclobutylethyl]amino}-8-[4-(3-methyl-1H-pyrazol-1-yl)pyridin-2-yl]-7-[4-(trifluoromethyl)benzyl]-7H-purine-2-carboxylic acid] | 2260 nM
C[C@@H](Nc1nc(C(=O)O)nc2nc(-c3cc(C(C)(C)O)ccn3)n(Cc3ccc(C(F)(F)F)cc3)c12)C1CCC1 [Example 1.27, 6-{[(1R)-1-cyclobutylethyl]amino}-8-[4-(1-hydroxy-1-methylethyl)pyridin-2-yl]-7-[4-(trifluoromethyl)benzyl]-7H-purine-2-carboxylic acid] | 9.41 nM
CC(C)c1ccc(OC(F)(F)F)c(-c2nc3nc(C(=O)O)nc(N[C@H](C)C4CCC4)c3n2Cc2ccc(OC(F)(F)F)c(F)c2)c1 [Example 1.83, 6-{[(1R)-1-cyclobutylethyl]amino}-7-[3-fluoro-4-(trifluoromethoxy)benzyl]-8-[5-(1-methylethyl)-2-(trifluoromethoxy)phenyl]-7H-purine-2-carboxylic acid] | 23.2 nM
C[C@@H](Nc1nc(C(=O)O)nc2nc(-c3ccc(C4CCCCC4)cc3)n(Cc3ccc(C(F)(F)F)cc3)c12)C1CCC1 [Example 1.110, 6-{[(1R)-1-cyclobutylethyl]amino}-8-(4-cyclohexylphenyl)-7-[4-(trifluoromethyl)benzyl]-7H-purine-2-carboxylic acid] | 3700 nM
C[C@@H](Nc1nc(C(=O)O)nc2nc(-c3cc(C(C)(C)C)ccn3)n(Cc3ccc(C(F)(F)F)c(F)c3)c12)C1CCC1 [Example 1.76, 8-(4-tert-butylpyridin-2-yl)-6-{[(1R)-1-cyclobutylethyl]amino}-7-[3-fluoro-4-(trifluoromethyl)benzyl]-7H-purine-2-carboxylic acid] | 8.49 nM
CC(O)c1ccc(-c2nc3nc(C(=O)O)nc(N[C@H](C)C4CCC4)c3n2Cc2ccc(C(F)(F)F)cc2)cc1 (stereo partly drawn) [Example 1.101, 6-{[(1R)-1-cyclobutylethyl]amino}-8-[4-(1-hydroxyethyl)phenyl]-7-[4-(trifluoromethyl)benzyl]-7H-purine-2-carboxylic acid] | 34.2 nM
CC(C)c1ccnc(-c2nc3nc(C(=O)O)nc(N[C@H](C)C4CCC4)c3n2Cc2ccc(C(F)(F)F)c(F)c2)c1 [Example 1.49, 6-{[(1R)-1-cyclobutylethyl]amino}-7-[3-fluoro-4-(trifluoromethyl)benzyl] - 8-[4-(1-methylethyl)pyridin-2-yl]-7H-purine-2-carboxylic acid] | 3.52 nM
C[C@@H](Nc1nc(C(=O)O)nc2nc(-c3ccc4c(ccn4C)c3)n(Cc3ccc(C(F)(F)F)cc3)c12)C1CCC1 [Example 1.108, 6-{[(1R)-1-cyclobutylethyl]amino}-8-(1-methyl-1H-indol-5-yl)-7-[4-(trifluoromethyl)benzyl]-7H-purine-2-carboxylic acid] | 60.9 nM
C[C@@H](Nc1nc(C(=O)O)nc2nc(-c3cc(CCC(C)(C)C)ccn3)n(Cc3ccc(C(F)(F)F)cc3)c12)C1CCC1 [Example 1.88, 6-{[(1R)-1-cyclobutylethyl]amino}-8-[4-(3,3-dimethylbutyl)pyridin-2-yl]-7-[4-(trifluoromethyl)benzyl]-7H-purine-2-carboxylic acid] | 19.6 nM
C[C@@H](Nc1nc(C(=O)O)nc2nc(-c3cc(C(F)F)ccn3)n(Cc3ccc(C(F)(F)F)cc3)c12)C1CCC1 [Example 1.46, 6-{[(1R)-1-cyclobutylethyl]amino}-8-[4-(difluoromethyl)pyridin-2-yl]-7-[4-(trifluoromethyl)benzyl]-7H-purine-2-carboxylic acid] | 12.3 nM
COc1ccnc(-c2nc3nc(C(=O)O)nc(N[C@H](C)C4CCC4)c3n2Cc2ccc(C(F)(F)F)cc2)c1C [Example 1.74, 6-{[(1R)-1-cyclobutylethyl]amino}-8-(4-methoxy-3-methylpyridin-2-yl)-7-[4-(trifluoromethyl)benzyl]-7H-purine-2-carboxylic acid] | 72.5 nM
CCc1ccc(OCOC)c(-c2nc3nc(C(=O)O)nc(N[C@H](C)C4CCC4)c3n2Cc2ccc(C(F)(F)F)cc2)c1 [Example 1.36, 6-{[(1R)-1-cyclobutylethyl]amino}-8-[5-ethyl-2-(methoxymethoxy)pheny 1]-7-[4-(trifluoromethyl)benzyl]-7H-purine-2-carboxylic acid] | 23.1 nM

same assay, conditions: Table 2

SMILES | IC50
C[C@@H](Nc1nc(C(=O)O)nc2nc(-c3cccc(C(C)(C)C)c3)n(Cc3ccc(C(F)(F)F)cc3)c12)C1CC1 [Example 2.19, 8-(3-tert-butylphenyl)-6-{[(1R)-1-cyclopropylethyl]amino}-7-[4-(trifluoromethyl)benzyl]-7H-purine-2-carboxylic acid] | 145 nM
COc1cccc(-c2nc3nc(C(=O)O)nc(N[C@H](C)C4CCC4)c3n2Cc2ccc(C(F)(F)F)cc2)c1 [Example 2.1, (R)-6-((1-cyclobutylethyl)amino)-8-(3-methoxyphenyl)-7-(4-(trifluoromethyl)benzyl)-7H-purine-2-carboxylic acid] | 37.5 nM
C[C@@H](Nc1nc(C(=O)O)nc2nc(-c3cccc(N(C)C)c3)n(Cc3ccc(C(F)(F)F)cc3)c12)C1CC1 [Example 2.29, 6-{[(1R)-1-cyclopropylethyl]amino}-8-[3-(dimethylamino)phenyl]-7-[4-(trifluoromethyl)benzyl]-7H-purine-2-carboxylic acid] | 105 nM
Cc1cccc(-c2nc3nc(C(=O)O)nc(N[C@H](C)C4CC4)c3n2Cc2ccc(C(F)(F)F)cc2)c1C [Example 2.59, 6-{[(1R)-1-cyclopropylethyl]amino}-8-(2,3-dimethylphenyl)-7-[4-(trifluoromethyl)benzyl]-7H-purine-2-carboxylic acid] | 147 nM
C[C@@H](Nc1nc(C(=O)O)nc2nc(-c3cccc(OC(F)(F)F)c3)n(Cc3ccc(C(F)(F)F)cc3)c12)C1CC1 [Example 2.26, 6-{[(1R)-1-cyclopropylethyl]amino}-8-[3-(trifluoromethoxy)phenyl]-7-[4-(trifluoromethyl)benzyl]-7H-purine-2-carboxylic acid] | 550 nM
Cc1ccc(-c2nc3nc(C(=O)O)nc(N[C@H](C)C4CC4)c3n2Cc2ccc(C(F)(F)F)cc2)cn1 [Example 2.36, 6-{[(1R)-1-cyclopropylethyl]amino}-8-(6-methylpyridin-3-yl)-7-[4-(trifluoromethyl)benzyl]-7H-purine-2-carboxylic acid] | 1300 nM
C[C@@H](Nc1nc(C(=O)O)nc2nc(-c3cnn(C)c3)n(Cc3ccc(C(F)(F)F)cc3)c12)C1CC1 [Example 2.35, 6-{[(1R)-1-cyclopropylethyl]amino}-8-(1-methyl-1H-pyrazol-4-yl)-7-[4-(trifluoromethyl)benzyl]-7H-purine-2-carboxylic acid] | 510 nM
Cc1ccccc1-c1nc2nc(C(=O)O)nc(N[C@H](C)C3CC3)c2n1Cc1ccc(C(F)(F)F)cc1 [Example 2.30, 6-{[(1R)-1-cyclopropylethyl]amino}-8-(2-methylphenyl)-7-[4-(trifluoromethyl)benzyl]-7H-purine-2-carboxylic acid] | 140 nM
COc1ncc(-c2nc3nc(C(=O)O)nc(N[C@H](C)C4CC4)c3n2Cc2ccc(C(F)(F)F)cc2)cc1F [Example 2.49, 6-{[(1R)-1-cyclopropylethyl]amino}-8-(5-fluoro-6-methoxypyridin-3-yl)-7-[4-(trifluoromethyl)benzyl]-7H-purine-2-carboxylic acid] | 310 nM
C[C@@H](Nc1nc(C(=O)O)nc2nc(C3CCCCC3)n(Cc3ccc(C(F)(F)F)cc3)c12)C1CCC1 [Example 2.4, (R)-6-((1-cyclobutylethyl)amino)-8-cyclohexyl-7-(4-(trifluoromethyl)benzyl)-7H-purine-2-carboxylic acid] | 11.5 nM
C[C@@H](Nc1nc(C(=O)O)nc2nc(-c3cnc(O)c(F)c3)n(Cc3ccc(C(F)(F)F)cc3)c12)C1CC1 [Example 2.51, 6-{[(1R)-1-cyclopropylethyl]amino}-8-(5-fluoro-6-hydroxypyridin-3-yl)-7-[4-(trifluoromethyl)benzyl]-7H-purine-2-carboxylic acid] | 1230 nM
C[C@@H](Nc1nc(C(=O)O)nc2nc(-c3ccc(OC(F)(F)F)cc3)n(Cc3ccc(C(F)(F)F)cc3)c12)C1CC1 [Example 2.27, 6-{[(1R)-1-cyclopropylethyl]amino}-8-[4-(trifluoromethoxy)phenyl]-7-[4-(trifluoromethyl)benzyl]-7H-purine-2-carboxylic acid] | 1140 nM

same assay, conditions: Table 4

SMILES | IC50
CNC(=O)CCOc1ccc(C)cc1-c1nc2nc(C(=O)O)nc(N[C@H](C)C3CC3)c2n1Cc1ccc(Cl)cc1 [Example 4.13, (R)-7-(4-chlorobenzyl)-6-((1-cyclopropylethyl)amino)-8-(5-methyl-2-(3-(methylamino)-3-oxopropoxy)phenyl)-7H-purine-2-carboxylic acid] | 487 nM

same assay, conditions: Table 5

SMILES | IC50
Cc1cccc(-c2nc3nc(C(=O)O)nc(N[C@H](C)C4CC4)c3n2Cc2ccccc2C(F)(F)F)c1 [Example 5.16, 6-{[(1R)-1-cyclopropylethyl]amino}-8-(3-methylphenyl)-7-[2-(trifluoromethyl)benzyl]-7H-purine-2-carboxylic acid] | 8330 nM
Cc1cccc(-c2nc3nc(C(=O)O)nc(N[C@H](C)C4CCC4)c3n2Cc2ccc(OC(F)(F)F)c(F)c2)c1 [Example 5.14, 6-{[(1R)-1-cyclobutylethyl]amino}-7-[3-fluoro-4-(trifluoromethoxy)benzyl]-8-(3-methylphenyl)-7H-purine-2-carboxylic acid] | 36.4 nM
Cc1cccc(-c2nc3nc(C(=O)O)nc(N[C@H](C)C4CC4)c3n2Cc2ccc(C(F)(F)F)c(Cl)c2)c1 [Example 5.15, 7-[3-chloro-4-(trifluoromethyl)benzyl]-6-{[(1R)-1-cyclopropylethyl]amino}-8-(3-methylphenyl)-7H-purine-2-carboxylic acid] | 609 nM
Cc1cccc(-c2nc3nc(C(=O)O)nc(N[C@H](C)C4CCC4)c3n2Cc2ccc(C3CC3)cc2)c1 [Example 5.10, 6-{[(1R)-1-cyclobutylethyl]amino}-7-(4-cyclopropylbenzyl)-8-(3-methylphenyl)-7H-purine-2-carboxylic acid] | 270 nM

Reference: patent EP2951180B1, “2,6,7,8 SUBSTITUTED PURINES AS HDM2 INHIBITORS” (Merck Sharp & Dohme Corp., priority 2013, dated 2014)
